Literature values in patent publication US20160018671A1, “DRUG DELIVERY FROM CONTACT LENSES WITH A FLUIDIC MODULE” (ONEFOCUS TECHNOLOGY, LLC, priority 2013, published 2016).
Where a name gives a salt, the structure may show the parent alone.

Details: contact lenses passively impregnated with the drug; for IOP reductions: compared with conventional therapy

Row | Compound | toxicity | IOP reductions
1 | CC(C)(C)NC[C@H](O)COc1nsnc1N1CCOCC1 [timolol maleate] | no toxicity | equivalent to conventional therapy
2 | brimonidine tartrate | no toxicity | equivalent to conventional therapy
